From ChEMBL document CHEMBL1201862, “PubChem BioAssay data set” (2004)
Active and inactive are the calls of the source.

Legend:
[1] = target: T1, E3 ubiquitin-protein ligase XIAP (Homo sapiens, UniProt P98170); assay: Counter Screen using XIAP-Bir3 for Chemical Antagonists of Bir1/2 domains of IAP-family anti-apoptotic proteins. [Related pubchem assays (depositor defined):AID1018, AID1449, AID1514, AID1638, AID1749, AID1750, AID488957, AID488963]
[2] = target: T1, E3 ubiquitin-protein ligase XIAP; assay: XIAP antagonists, biochemical, IAP family, fluorescence polarization (AID 1018); assay type: functional
[3] = target: SUMO-activating enzyme (Homo sapiens, UniProt Q9UBT2); assay: SUMOylation inhibitor hit validation, confirmation, SUMOylation inhibitor project, biochemical, AlphaScreen (AID 2018); assay type: functional
[4] = target: Troponin, cardiac muscle (Homo sapiens, UniProt P19429+P45379+P63316); assay: Fluorescence-based biochemical high throughput dose response assay for activators of the calcium sensitivity of cardiac Regulated Thin Filaments (RTF). [Related pubchem assays (depositor defined):AID493008, AID493018, AID504382, AID504383]; assay type: protein-complex assay
[5] = target: T2, RNA-binding protein pos-1 (Caenorhabditis elegans, UniProt G5EF15); assay: inhibitors of POS-1/mex-3 RNA binding, dose response, biochemical, fluorescence polarization (AID 1964);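 note: purified POS-1 fused to maltose binding protein made in E. coli; potency of compounds blocking POS-1 binding to fluorescent RNA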
T2 sequence (G5EF15 whole entry): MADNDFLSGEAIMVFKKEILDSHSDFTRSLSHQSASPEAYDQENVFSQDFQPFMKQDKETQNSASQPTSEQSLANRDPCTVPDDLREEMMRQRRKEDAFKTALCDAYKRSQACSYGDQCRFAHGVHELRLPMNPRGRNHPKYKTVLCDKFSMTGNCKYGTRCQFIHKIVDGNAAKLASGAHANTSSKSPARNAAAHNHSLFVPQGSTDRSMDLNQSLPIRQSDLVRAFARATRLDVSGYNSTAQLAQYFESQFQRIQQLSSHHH

[6] = target: T3, Zinc finger protein mex-5 (Caenorhabditis elegans, UniProt Q9XUB2); assay: MEX-5/TCR-2 RNA interaction inhibitors, dose response, biochemical, C. elegans, fluorescence polarization (AID 1960)
T3 sequence (Q9XUB2 whole entry): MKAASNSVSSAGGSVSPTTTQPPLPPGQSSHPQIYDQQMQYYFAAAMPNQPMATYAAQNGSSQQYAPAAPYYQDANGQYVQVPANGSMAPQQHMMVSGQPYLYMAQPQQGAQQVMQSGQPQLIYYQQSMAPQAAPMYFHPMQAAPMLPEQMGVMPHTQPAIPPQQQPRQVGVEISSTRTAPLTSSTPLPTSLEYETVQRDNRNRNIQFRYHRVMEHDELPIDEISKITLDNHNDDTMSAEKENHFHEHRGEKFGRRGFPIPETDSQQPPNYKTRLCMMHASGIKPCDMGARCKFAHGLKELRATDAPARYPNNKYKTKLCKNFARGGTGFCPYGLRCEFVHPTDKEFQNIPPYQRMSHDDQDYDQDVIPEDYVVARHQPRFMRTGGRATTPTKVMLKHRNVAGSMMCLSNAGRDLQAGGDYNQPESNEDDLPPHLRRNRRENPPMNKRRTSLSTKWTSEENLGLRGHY

[7] = target: Peroxisome proliferator-activated receptor gamma (Homo sapiens, UniProt P37231); assay: PPARg partial agonists, dose response, cell-based, luminescence, assay provider (AID 504447); assay type: functional
[8] = target: T4, Corticotropin-releasing factor receptor 2/Corticotropin-releasing factor-binding protein (Homo sapiens, UniProt P24387+Q13324); assay: activators of CRF receptor 2 with binding protein – uHTS hits, confirmation (AID 602473); assay type: functional; settings: read-out: EC50_Mean
T4 sequence (Q13324 whole entry): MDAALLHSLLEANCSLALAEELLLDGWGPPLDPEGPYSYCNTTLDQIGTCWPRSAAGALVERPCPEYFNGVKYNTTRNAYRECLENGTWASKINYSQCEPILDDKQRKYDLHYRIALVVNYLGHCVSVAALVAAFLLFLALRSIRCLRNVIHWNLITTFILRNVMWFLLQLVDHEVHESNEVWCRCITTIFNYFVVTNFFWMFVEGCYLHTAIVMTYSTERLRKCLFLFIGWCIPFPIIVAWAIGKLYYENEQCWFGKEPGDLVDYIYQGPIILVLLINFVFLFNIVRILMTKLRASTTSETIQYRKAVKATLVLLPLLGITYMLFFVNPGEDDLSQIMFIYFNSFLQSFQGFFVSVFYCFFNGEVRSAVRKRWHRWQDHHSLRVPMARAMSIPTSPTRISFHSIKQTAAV
T4 sequence (P24387 whole entry): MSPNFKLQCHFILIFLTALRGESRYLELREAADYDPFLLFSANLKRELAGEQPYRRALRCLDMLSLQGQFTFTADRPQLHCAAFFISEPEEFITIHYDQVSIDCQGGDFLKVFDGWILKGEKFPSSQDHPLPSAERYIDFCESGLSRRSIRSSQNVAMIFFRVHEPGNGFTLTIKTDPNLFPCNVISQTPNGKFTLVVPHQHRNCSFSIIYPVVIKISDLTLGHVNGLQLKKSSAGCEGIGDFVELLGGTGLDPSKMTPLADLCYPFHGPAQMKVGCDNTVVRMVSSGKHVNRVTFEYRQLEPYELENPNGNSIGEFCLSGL

T1 sequence (P98170 whole entry): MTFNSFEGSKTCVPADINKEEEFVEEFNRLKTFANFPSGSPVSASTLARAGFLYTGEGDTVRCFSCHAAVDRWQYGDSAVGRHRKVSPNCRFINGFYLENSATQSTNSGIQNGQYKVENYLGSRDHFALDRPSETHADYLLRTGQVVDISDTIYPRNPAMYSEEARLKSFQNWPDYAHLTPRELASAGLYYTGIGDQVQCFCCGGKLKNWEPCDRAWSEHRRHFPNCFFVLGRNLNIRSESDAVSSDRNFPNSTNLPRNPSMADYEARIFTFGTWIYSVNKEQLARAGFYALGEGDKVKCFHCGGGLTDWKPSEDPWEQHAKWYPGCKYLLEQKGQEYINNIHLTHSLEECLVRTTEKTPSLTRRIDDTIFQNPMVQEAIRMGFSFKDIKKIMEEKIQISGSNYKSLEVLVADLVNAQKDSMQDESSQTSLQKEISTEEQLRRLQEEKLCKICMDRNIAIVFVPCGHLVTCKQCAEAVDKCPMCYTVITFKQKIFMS
Chain of SUMO-activating enzyme (Q9UBE0 whole entry): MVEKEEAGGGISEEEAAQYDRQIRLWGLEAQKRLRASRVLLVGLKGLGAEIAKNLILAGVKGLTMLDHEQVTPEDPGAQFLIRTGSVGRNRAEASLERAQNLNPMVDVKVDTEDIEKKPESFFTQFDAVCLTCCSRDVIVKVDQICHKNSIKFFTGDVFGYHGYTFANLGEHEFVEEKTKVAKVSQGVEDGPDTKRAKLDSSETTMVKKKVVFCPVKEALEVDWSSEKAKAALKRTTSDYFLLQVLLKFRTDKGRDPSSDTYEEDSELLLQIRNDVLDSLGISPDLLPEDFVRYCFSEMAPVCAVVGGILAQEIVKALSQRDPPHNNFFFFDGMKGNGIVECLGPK
Chain of SUMO-activating enzyme (Q9UBT2 whole entry): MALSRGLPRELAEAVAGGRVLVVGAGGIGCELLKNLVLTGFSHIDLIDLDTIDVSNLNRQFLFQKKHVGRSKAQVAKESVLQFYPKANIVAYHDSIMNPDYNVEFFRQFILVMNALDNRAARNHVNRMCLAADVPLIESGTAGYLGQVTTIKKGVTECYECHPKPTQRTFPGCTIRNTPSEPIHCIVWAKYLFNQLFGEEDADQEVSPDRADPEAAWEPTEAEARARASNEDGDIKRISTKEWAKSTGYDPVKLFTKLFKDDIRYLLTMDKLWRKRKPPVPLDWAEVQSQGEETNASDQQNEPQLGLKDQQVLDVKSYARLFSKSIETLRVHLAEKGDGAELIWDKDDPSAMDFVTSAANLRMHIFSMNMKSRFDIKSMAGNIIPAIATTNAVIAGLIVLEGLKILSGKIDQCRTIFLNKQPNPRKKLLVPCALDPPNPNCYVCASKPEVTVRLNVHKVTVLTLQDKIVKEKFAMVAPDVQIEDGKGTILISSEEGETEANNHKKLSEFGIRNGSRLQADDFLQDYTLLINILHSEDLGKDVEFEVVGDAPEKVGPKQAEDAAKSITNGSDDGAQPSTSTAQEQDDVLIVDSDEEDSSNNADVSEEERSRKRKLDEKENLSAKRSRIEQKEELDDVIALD
Chain of Peroxisome proliferator-activated receptor gamma (P37231 whole entry): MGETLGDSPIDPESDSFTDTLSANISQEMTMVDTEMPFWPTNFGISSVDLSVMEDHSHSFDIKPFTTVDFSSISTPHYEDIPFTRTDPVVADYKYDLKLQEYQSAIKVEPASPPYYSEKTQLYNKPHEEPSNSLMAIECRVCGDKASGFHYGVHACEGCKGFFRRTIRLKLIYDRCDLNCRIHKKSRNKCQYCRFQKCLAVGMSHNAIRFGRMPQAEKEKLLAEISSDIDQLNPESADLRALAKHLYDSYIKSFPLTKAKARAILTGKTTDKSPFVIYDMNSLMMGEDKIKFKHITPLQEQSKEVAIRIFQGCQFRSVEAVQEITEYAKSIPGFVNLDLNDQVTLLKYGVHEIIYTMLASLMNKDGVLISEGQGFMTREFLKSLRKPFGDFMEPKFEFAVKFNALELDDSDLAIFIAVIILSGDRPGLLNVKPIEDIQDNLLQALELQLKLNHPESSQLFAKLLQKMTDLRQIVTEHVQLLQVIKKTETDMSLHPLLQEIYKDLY

Which results are given for `C=CCNC(=O)/C(C#N)=C/c1cn(-c2ccccc2)nc1-c1ccc(OC)c([N+](=O)[O-])c1`?
IC50 [1]: > 100 µM (inactive); IC50 [2]: > 100 µM (not active)

For `Cn1c2ccccc2c2cnn(CC(=O)Nc3ccc(Cl)cc3)c(=O)c21`, which IC50 [3] is on record?
Its IC50 is 46 µM (active).

`O=C(O)CCC(=O)Nc1cc(C(F)(F)F)cc(C(F)(F)F)c1` was tested. Which EC50 [4] did it give?
Its EC50 is > 71.4 µM (inactive).

How did the EC50 [5] turn out when `COc1ccccc1N1C(=O)C2C(C(=O)c3ccccc3)=NN(c3ccc(C)cc3)C2C1=O` (stereo not drawn) was run?
Its EC50 is 13.7 µM (inconclusive).

What about the EC50 [6] of the same compound?
The EC50 was 14.3 µM (active).

And the EC50 [7]?
The EC50 was 1.7 µM (active).

What about the EC50 [8] of the same compound?
The EC50 was 5.27 µM (active).
